Key:
[1] = molecular target: T1, yeast recombinant FLAG-GPBP (Homo sapiens, UniProt Q9Y5P4); experiment: FLAG-GPBP auto-phosphorylation assay; format: biochemical; settings: 10 μM compound, 5 min at 30° C., autoradiography bands quantified, vehicle = 100; read-out: Relative kinase activity (% referred to vehicle)
T1 construct: FLAG; made in house
T1 sequence (Q9Y5P4 1-624): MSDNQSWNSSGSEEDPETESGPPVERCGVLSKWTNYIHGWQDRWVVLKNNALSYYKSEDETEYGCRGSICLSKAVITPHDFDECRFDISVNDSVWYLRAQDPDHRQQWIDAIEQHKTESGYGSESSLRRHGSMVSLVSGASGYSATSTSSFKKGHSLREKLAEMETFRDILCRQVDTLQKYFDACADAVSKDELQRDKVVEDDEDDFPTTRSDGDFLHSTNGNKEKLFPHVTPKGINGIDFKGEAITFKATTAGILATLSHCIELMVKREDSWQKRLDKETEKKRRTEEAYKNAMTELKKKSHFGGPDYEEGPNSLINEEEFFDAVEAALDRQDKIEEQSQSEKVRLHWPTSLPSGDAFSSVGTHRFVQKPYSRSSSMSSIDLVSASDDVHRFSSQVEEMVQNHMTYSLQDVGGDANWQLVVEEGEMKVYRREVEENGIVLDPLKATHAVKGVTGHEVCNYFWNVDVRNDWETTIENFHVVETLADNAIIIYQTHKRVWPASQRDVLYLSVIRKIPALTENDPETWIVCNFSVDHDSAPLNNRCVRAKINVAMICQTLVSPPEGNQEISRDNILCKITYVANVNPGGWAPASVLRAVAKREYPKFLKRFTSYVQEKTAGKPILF
From the text: Goodpasture antigen-binding protein (GPBP) is a non-conventional Ser/Thr kinase which targets and phosphorylates the non-collagenous (NC1) domain of α3 chain of human type IV collagen [α3(IV)NC1], known as Goodpasture antigen. GPBP expression has been associated with antibody-mediated glomerulonephritis, rheumatoid arthritis and drug-resistance cancer. We have reported that GPBP self-interacts, that aggregation and autophosphorylation regulate kinase activity, and that the Q2 peptide inhibits autophosphorylation and GPBP kinase activity (WO 00/50607). The GPBP kinase inhibitory activity of a number of terphenylic compounds mimicking Q2, a peptide representing a critical GPBP motif which is relevant for GPBP quaternary structure stabilization, have been tested on GPBP autophosphorylation ability The autophosphorylation ability of GPBP has been used to test the GPBP kinase inhibitor activity of several terphenylic compounds (Scheme 18) derived from the chemical structure of Q2 peptide, which in turn represents GPBP peptidic sequence relevant for self-interaction.
Two hundred nanograms of yeast recombinant FLAG-GPBP were subjected to phosphorylation assays in absence (vehicle) or presence of a 10 μM concentration of each of the indicated Q2-peptidomimetic compounds or an intermediate of synthesis used as negative control (C), during 5 min at 30° C. Reactions were subjected to SDS-PAGE, Western blot and autoradiography. The bands in the autoradiography were quantified using Image-Quant TL software. The kinase activity of GPBP in the presence of the indicated compounds was referred to the sample containing the vehicle, which was given a value of 100.
Yeast recombinant FLAG-GPBP production and purification were also performed. GPBP autophosphorylation assay times were limited to 10 min at 30° C.

GPBP [2] = molecular target: T2, GPBP (Homo sapiens, UniProt Q9Y5P4); settings: see U.S. Pat. No. 7,326,768; cited from earlier work
T2 sequence (Q9Y5P4 1-624): T1 sequence (Q9Y5P4 1-624)

GPBP [3] = molecular target: T2, GPBP; settings: see U.S. Pat. No. 7,326,768; cited from earlier work; remark: listed apart in the source

| Compound | activity at 10 µM [1] [%] | also measured |
| --- | --- | --- |
| Cc1cccc(-c2ccc(-c3ccc(OCC(=O)O)cc3CCC(=O)O)cc2C)c1 [Compound 24b, 3-[4″-(carboxymethoxy)-3,2′-dimethyl-(1,1′;4,1″)terphenyl-2″-yl]propionic acid] | 64 | – |
| O=C(O)CCc1cc(O)ccc1-c1ccc(-c2cccnc2)c(CO)c1 [Compound 1c, 3-[4-hydroxy-3′-(hydroxymethyl)-4′-(pyridin-3-yl)biphenyl-2-yl]propionic acid] | 58 | – |
| COc1ccc(-c2ccc(-c3cccnc3)c(CF)c2)c(CCC(=O)O)c1 [Compound 22k, 3-[3′-(fluoromethyl)-4-methoxy-4′-(pyridin-3-yl)biphenyl-2-yl]propionic acid] | 135 | – |
| COc1ccc(-c2ccc(-c3cccc(C)c3)c(C(F)F)c2)c(CCC(=O)O)c1 [Compound 22d, 3-[2′-(difluoromethyl)-4″-methoxy-3-methyl-(1,1′;4′,1″)terphenyl-2″-yl]propionic acid] | 79 | – |
| COc1ccc(-c2ccc(-c3cccc(C(F)(F)F)c3)c(CF)c2)c(CCC(=O)O)c1 [Compound 22g, 3-[2′-(fluoromethyl)-4″-methoxy-3-(trifluoromethyl)-(1,1′;4′,1″)terphenyl-2″-yl]propionic acid] | 103 | – |
| Cc1cccc(-c2ccc(-c3ccc(O)cc3CCC(=O)O)cc2CF)c1 [Compound 15a, 3-[2′-(fluoromethyl)-4″-hydroxy-3-methyl-(1,1′;4′,1″)terphenyl-2″-yl]propionic acid] | 79 | – |
| Cc1cccc(-c2ccc(-c3ccc(O)cc3C(C)C)cc2CCC(=O)O)c1 [Compound 2a, 3-[4″-hydroxy-2″-isopropyl-3-methyl-(1,1′;4′,1″)terphenyl-2′-yl]propionic acid] | 90 | – |
| COc1ccc(-c2ccc(-c3ccc(OC)c(C)c3)c(C)c2)c(CCC(=O)O)c1 [Compound 32, 3-[4,4″-dimethoxy-3,2′-dimethyl-(1,1′;4′,1″)terphenyl-2″-yl]propionic acid] | 28 | – |
| CCCOc1ccc(-c2ccc(-c3cccc(C(F)(F)F)c3)c(C)c2)c(CCC(=O)O)c1 [Compound 24c, 3-[2′-methyl-4″-propoxy-3-(trifluoromethyl)-(1,1′;4′,1″)terphenyl-2″-yl]propionic acid] | 36 | – |
| Cc1cccc(-c2ccc(-c3ccc(O)cc3CCC(=O)O)cc2C)c1 [Compound 12a, 3-[4″-hydroxy-2′,3-dimethyl-(1,1′;4′,1″)terphenyl-2″-yl]propionic acid] | 53 | – |
| COc1ccc(-c2ccc(-c3cccc(C)c3)c(CF)c2)c(CCC(=O)O)c1 [Compound 22c, 3-[2′-(fluoromethyl)-4″-methoxy-3-methyl-(1,1′;4′,1″)terphenyl-2″-yl]propionic acid] | 123 | – |
| CCCOc1ccc(-c2ccc(-c3cccc(C)c3)c(C)c2)c(CCC(=O)O)c1 [Compound 24a, 3-[3,2′-dimethyl-4″-propoxy-(1,1′;4′,1″)terphenyl-2″-yl]propionic acid] | 73 | – |
| O=C(O)CCc1cc(O)ccc1-c1ccc(-c2cccc(C(F)(F)F)c2)c(CF)c1 [Compound 15b, 3-[2′-(fluoromethyl)-4″-hydroxy-3-(trifluoromethyl)-(1,1′;4′,1″)terphenyl-2″-yl]propionic acid] | 21 | – |
| LATLSHCIELMVKR [Compound Q2, synthetic peptide representing the five-residue SHCIE motif of GPBP and flanking regions] | – | α3(IV)NC1 conformer production by GPBP (GPBP [2]): reduce α3(IV)NC1 conformer production; inhibition of GPBP autophosphorylation (GPBP [3]): efficiently inhibited GPBP autophosphorylation |
| COc1ccc(-c2ccc(-c3cccnc3)c(C(F)F)c2)c(CCC(=O)O)c1 [Compound 22l, 3-[3′-(difluoromethyl)-4-methoxy-4′-(pyridin-3-yl)biphenyl-2-yl]propionic acid] | 136 | – |
| COc1ccc(-c2ccc(-c3cccc(C)c3)c(CO)c2)c(CCC(=O)O)c1 [Compound 22a, 3-[2′-(hydroxymethyl)-4″-methoxy-3-methyl-(1,1′;4′,1″)terphenyl-2″-yl]propionic acid] | 118 | – |
| O=C(O)CCc1cc(O)ccc1-c1ccc(-c2cccc(C(F)(F)F)c2)c(CO)c1 [Compound 1b, 3-[4″-hydroxy-2′-(hydroxymethyl)-3-(trifluoromethyl)-(1,1′;4′,1″)terphenyl-2″-yl]propionic acid] | 131 | – |
| COc1ccc(-c2ccc(-c3cccc(C(F)(F)F)c3)c(C)c2)c(CCC(=O)O)c1 [Compound 22f, 3-[2′-methyl-4″-methoxy-3-(trifluoromethyl)-(1,1′;4′,1″)terphenyl-2″-yl]propionic acid] | 41 | – |
| Cc1cc(-c2ccc(O)cc2CCC(=O)O)ccc1-c1cccc(C(F)(F)F)c1 [Compound 12b, 3-[4″-hydroxy-2′-methyl-3-(trifluoromethyl)-(1,1′;4′,1″)terphenyl-2″-yl]propionic acid] | 49 | – |
| COc1ccc(-c2ccc(-c3cccc(C)c3)c(C)c2)c(CCC(=O)O)c1 [Compound 22b, 3-[4″-methoxy-3,2′-dimethyl-(1,1′;4′,1″)terphenyl-2″-yl]propionic acid] | 44 | – |
| O=C(O)CCc1cc(O)ccc1-c1ccc(-c2cccc(C(F)(F)F)c2)c(C(F)F)c1 [Compound 20b, 3-[2′-(difluoromethyl)-4″-hydroxy-3-(trifluoromethyl)-(1,1′;4′,1″)terphenyl-2″-yl]propionic acid] | 77 | – |
| COc1ccc(-c2ccc(-c3cccnc3)c(C)c2)c(CCC(=O)O)c1 [Compound 22j, 3-[4-methoxy-3′-methyl-4′-(pyridin-3-yl)biphenyl-2-yl]propionic acid] | 50 | – |
| COc1ccc(-c2ccc(-c3cccc(C(F)(F)F)c3)c(CO)c2)c(CCC(=O)O)c1 [Compound 22e, 3-[2′-(hydroxymethyl)-4″-methoxy-3-(trifluoromethyl)-(1,1′;4′,1″)terphenyl-2″-yl]propionic acid] | 129 | – |
| COc1ccc(-c2ccc(-c3cccnc3)c(CO)c2)c(CCC(=O)O)c1 [Compound 22i, 3-[3′-(hydroxymethyl)-4-methoxy-4′-(pyridin-3-yl)biphenyl-2-yl]propionic acid] | 132 | – |
| Cc1cccc(-c2ccc(-c3ccc(O)cc3CCC(=O)O)cc2CO)c1 [Compound 1a, 3-[4″-hydroxy-2′-(hydroxymethyl)-3-methyl-(1,1′;4′,1″)terphenyl-2″-yl]propionic acid] | 34 | – |
| COc1ccc(-c2ccc(-c3cccc(C(F)(F)F)c3)c(C(F)F)c2)c(CCC(=O)O)c1 [Compound 22h, 3-[2′-(difluoromethyl)-4″-methoxy-3-(trifluoromethyl)-(1,1′;4′,1″)terphenyl-2″-yl]propionic acid] | 49 | – |
| Cc1cccc(-c2ccc(-c3ccc(O)cc3CCC(=O)O)cc2C(F)F)c1 [Compound 20a, 3-[2′-(difluoromethyl)-4″-hydroxy-3-methyl-(1,1′;4′,1″)terphenyl-2″-yl]propionic acid] | 61 | – |
